These are literature values, as cited in US20060153925A1, “Novel solid pharmaceutical composition comprising amisulpride” (Sanofi-Aventis, priority 2003, published 2006).

For the series the following is noted: administered orally; attributed to partial gastrointestinal absorption.

As to `CCN1CCCC1CNC(=O)c1cc(S(=O)(=O)CC)c(N)cc1OC` (racemic) [amisulpride, 4-amino-N-[(1-ethyl-2-pyrrolidin-yl)methyl]-5-(ethylsulfonyl)-2-methoxybenzamide], the bioavailability result was “about 48%”.
